Results as given in publication PMC6895199, “A new antiviral scaffold for human norovirus identified with computer-aided approaches on the viral polymerase” (Scientific Reports, 2019).
Where “and” joins values, the source holds several entries; their conditions need not be identical. Equal entries are not always repeated. Where two headings read alike, the source gives them in different places.

Key:
MNV = MNV CPE reduction assay (MTS) in RAW 264.7 cells; format: cell-based, mouse norovirus (MNV-1.CW1); conditions: Norovirus, RAW264.7, in Mus musculus, Table 2, RAW 264.7, range 0.6–100 µM, at least three independent experiments
Summary of the method: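 MNV-1.CW1-infected RAW 264.7 cells treated at eight concentrations (0.6–100 µM), 2′-C-methylcytidine as positive control. Viability read by MTS/PMS at OD 498 nm after 2 h; %CPE reduction normalised to uninfected and infected untreated cells, EC50 = concentration protecting 50% of cells from virus-induced CPE.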

[1] = Cytotoxicity by the MTS method on uninfected cells; format: cell-based; conditions: mouse, uninfected RAW 264.7 cells, Table 2, at least three independent experiments
Protocol: Cytotoxicity: The cytotoxicity of the Compounds was evaluated by the MTS method, by exposing uninfected cells to the same concentrations of compounds for 3 days. The %cell viability was calculated as (ODtreated/ODCC) × 100, where ODCC is the OD of uninfected untreated cells and ODtreated are uninfected cells treated with compound. The CC50 was defined as the compound concentration that reduces the number of viable cells by 50%[34].

HuNoV GI.1 replicon = test: HuNoV GI replicon assay (HGT-NV cells, qRT-PCR); format: cell-based, human norovirus GI.1
Protocol: Given that in this system the gene encoding for the major capsid protein is replaced by a neomycin resistance gene, no new virus particles will be produced but the non-structural proteins are expressed and the replication of the genomic RNA can be studied.
Cells and virus: MNV (virus strain MNV-1.CW1) was propagated in RAW 264.7 cells grown in DMEM (Life Technologies, Gent, Belgium) supplemented with 10% or 2% FBS, 2 mM L-glutamine, 20 mM HEPES, 0.075 g/L sodium bicarbonate, 1 mM sodium pyruvate, 100 U penicillin/mL and 100 µg/mL streptomycin at 37 °C in a humidified atmosphere of 5% CO2. The human norovirus GI.1 replicon harboring gastric tumor-1 cell line (HGT-NV) (kindly provided by Dr. Ian Goodfellow, University of Cambridge) was maintained in DMEM supplemented with 10% FBS, 2mM L-glutamine, 0.075 g/L sodium bicarbonate and 1.0 mg/ml of Geneticin (G418; Life Technologies), at 37 °C in a humidified atmosphere of 5% CO2[34].
Antiviral assay with the HGT-NV replicon: The inhibitory effect of Compounds on human norovirus replication was assessed by quantification of the levels of HuNoV GI replicon RNA and of the reference (housekeeping) gene β-actin mRNA [by quantitative reverse transcription polymerase chain reaction (qRT-PCR)]. To this end, HGT cells (2000 cells/well) were seeded in 96-well plates, in complete DMEM without the selection marker G418. Following an incubation period of 24 h, a serial dilution of rupintrivir was added to the cultures. After 72 h of incubation, cell monolayers were washed with phosphate-buffered saline (PBS) and collected for quantification of RNA load by qRT-PCR. Intracellular RNA was extracted from cells using the cell-to-cDNA lysis buffer (Ambion, Life Technologies). For detection of HuNoV GI replicon RNA, forward (5′-CCG GCT ACC TGC CCA TTC-3′), reverse (5′-CCAGATCATCCTGATCGACAAG-3′) primers and probe (5′-FAM-ACATCGCATCGAGCGAGCACGTAC-TAMRA-3′) for the neomycin gene were used. For detection of β-actin mRNA, forward (5′-GGCATCCACGAAACTACCTT-3′), reverse (5′-AGCACTGTGTTGGCGTACAG-3′) primers and probe (5′-HEX-ATCATGAAGTGTGACGTGGACATCCG-BHQ1–3′) were used. One-step qRT-PCR was performed in a 20 µL reaction mixture containing 10 µl 2X iTaq Universal SYBR® Green one step reaction mix (Bio-rad, California, USA), 5.17 µl RNAse free water, 0.5 µl of iScript reverse transcriptase (Bio-rad, California, USA), 4 µl of the template RNA and either 300 nM of HuNoV GI replicon primers and probe, 300 nM of β-actin primers and 200 nM of probe. Cycling conditions were: reverse transcription at 50 °C for 10 min, initial denaturation at 95 °C for 3 min, followed by 40 cycles of denaturation at 95 °C for 15 s, annealing and extension at 60 °C for 30 seconds (Roche Lightcycler®96, Roche Diagnostics, Belgium). To determine the relative expression levels of HuNoV GI replicon RNA, β-actin was used as a normalizer and ratios were calculated using the Pfaffl method. The Expression Ratio (HuNoV GI Replicon/β-actin) was calculated as: Expression Ratio = (E HuNoV)^ΔCT, HuNoV (CC – TC)/(Eβ-actin)^ΔCT, β-actin (CC – TC), where E HuNoV and Eβ-actin represent the amplification efficiency (E = 10^–1/slope) for the HuNoV GI replicon and β-actin qRT-PCR reactions, respectively. ΔCT, HuNoV (CC – TC) is the Ct of untreated control cells (CC) minus the Ct of cells treated with a compound concentration (TC) obtained with HuNoV GI replicon primers and probe. ΔCT, β-actin (CC – TC) is the Ct of untreated control cells (CC) minus the Ct of cells treated with a compound concentration (TC) obtained with β-actin primers and probe. Efficiency values (E HuNoV and Eβ-actin) were determined for each qRT-PCR reaction.

[2] = Crystal formation seen in the cell-based assays; format: physicochemical; conditions: observed with the HuNoV GI replicon results
HuNoV (GII.4) RdRp = test: Counter-screen gel-shift assay of primed elongation activity (PE44-NoV template); format: biochemical, human norovirus; conditions: fixed concentration of 100 μM
Protocol: To further confirm RdRp inhibition and exclude any potential false positives from the first fluorescence RdRp assay, the eight molecules were then assessed using a gel-shift enzyme activity assay at a fixed concentration of 100 μM, following a procedure previously adopted by our research group.
Figure 5 A counter-screen gel-shift assay was used to confirm HuNoV (GII.4) RdRp inhibitory activity of compounds 2, 3, 34 and 35 (A), 4, 5, 6 (B) and 7 (C). The eight compounds were examined for inhibition of primed elongation activity. PE44-NoV RNA templates (32 nucleotides) were extended (44 nucleotides) by the RdRp in the absence of any test compounds (0.5% DMSO [vol/vol] negative control) or with test compounds at a fixed concentration of 100 μM. […] Full-length gels are presented in Supplementary Fig. S3.
Fluorescent RdRp activity assays were carried out as previously described[12],[29]. Briefly, RdRp activity was quantified by monitoring the formation of double-stranded RNA (dsRNA) from a single stranded homopolymeric template, poly(C) (Sigma Aldrich), using the fluorescent dye PicoGreen (Life Technologies, Carlsbad, CA, USA). RdRp assays were performed in 384-well plates, and each reaction mixture contained 400 ng enzyme, 45 μM GTP, 10 ng/μL poly(C) RNA, 2.5 mM MnCl2, 5 mM dithiothreitol, (DTT), 0.01% bovine serum albumin (BSA), and 0.005% Tween 20 in 20 mM Tris-HCl, pH 7.5, with a final reaction volume of 25 μL. The PPNDS and compound 1 were used as a positive controls. RdRps were incubated for 10 mins at 30 °C in the presence of the test compounds or the compound vehicle DMSO (0.5% vol/vol) before addition into the reaction mixture, which was then allowed to run 15 min at 30 °C then terminated with 10 mM EDTA, followed by PicoGreen staining and dsRNA quantitation. GraphPad Prism V6.05 (La Jolla, CA, USA) was used to plot the IC50 values. A secondary gel-based polymerase activity assay was used as a counter-screen as described below, to exclude the possibility of RdRp activity enhancement. Primed elongation activity was examined in a gel-based assay as previously described[12],[29] using the RNA template (PE44-NoV). Gels were imaged using BioRad (Hercules, CA, U.SA) Geldoc Universal Hood II, running BioRad Image Lab software, V4.1, build 16.

[3] = similar MNV cell-based assay; cited from earlier work

Compound | EC50 (MNV) | CC50 at 3 days [1] | EC50 values (column head printed 'M') (HuNoV GI.1 replicon; HuNoV GI replicon in HGT-1 cells, 72 h, replicon RNA by qRT-PCR) | EC50 (HuNoV GI.1 replicon; Norwalk virus, HGT-1, 72 h, read-out: EC50 values (column head printed 'M'), HuNoV GI replicon in HGT-1 cells, replicon RNA by qRT-PCR) | EC50 (HuNoV GI.1 replicon; read-out: EC50 values (column head printed 'M'), HuNoV GI replicon in HGT-1 cells, 72 h, replicon RNA by qRT-PCR) | concentration from which crystals form [2] | inhibition of primed elongation activity (gel-shift) (HuNoV (GII.4) RdRp) | CC50 [3]
O=C(NC(=S)Nc1ccc(N2CCN(S(=O)(=O)c3ccccc3)CC2)cc1)c1ccccc1 [Compound 60, N-((4-(4-(Phenylsulfonyl)piperazin-1-yl)phenyl)carbamothioyl)benzamide] | 66.6 ± 12.3 µM | > 100 µM | low micromolar range | 8 µM | 8.5 ± 2.1 µM | ≥ 25 µM | – | –
O=C1NN(c2ccccc2)C(=O)/C1=C/c1ccc(-c2ccc(S(=O)(=O)Nc3ccccc3)cc2)o1 [Compound 1] | – | – | – | – | – | – | complete inhibition | ~64 µM and 62.8 µM
